Data on 19 compounds can be found in patent US8435978B2, “Substituted sulfonamide compounds” (Gruenenthal GmbH, priority 2006, dated 2013).

Structures can show the parent of a compound that is named as a salt.

Assay [1] has as its target T1, B1R receptor of the rat (Rattus norvegicus, UniProt P97583).
T1 construct: host or cells: CHO K1 cells (Chinese hamster ovary), stably transfected
T1 sequence (P97583 1-337): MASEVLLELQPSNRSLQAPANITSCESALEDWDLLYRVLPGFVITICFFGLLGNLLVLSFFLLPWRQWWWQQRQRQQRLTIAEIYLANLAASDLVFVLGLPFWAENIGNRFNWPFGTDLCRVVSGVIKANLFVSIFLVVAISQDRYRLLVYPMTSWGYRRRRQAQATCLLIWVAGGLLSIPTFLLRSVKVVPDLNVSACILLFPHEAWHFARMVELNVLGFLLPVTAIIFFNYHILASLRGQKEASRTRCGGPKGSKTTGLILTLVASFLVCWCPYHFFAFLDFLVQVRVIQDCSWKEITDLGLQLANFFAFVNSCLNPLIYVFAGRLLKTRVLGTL
Nature of the assay: Functional study on the bradykinin receptor 1 (B1R), FLIPR Ca2+ assay, rB1R cells. It is filed as cell-based. Particulars: agonist Des-Arg9-bradykinin 100 nM, % inhibition compared with the maximum achievable inhibition; for inhibition at 10 µM: CHO-K1, test substance 10 μM, read-out: B1R Antagonism, rat [10 μM] % Inhibition; for B1R Antagonism, rat [10 μM] % Inhibition: test substance 10 μM, rB1R CHO K1 cells. In short, it runs like this:
(§1)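 FLIPR Ca2+ read-out (Fluo-4, peak fluorescence) in stably transfected CHO K1 cells. Compounds at 10 μM, then 10 min later agonist challenge: human B1R with Lys-Des-Arg9-bradykinin 0.5 nM, rat B1R with Des-Arg9-bradykinin 100 nM; reported as % activation or % of maximal inhibition.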

In assay [2] the target is T2, human B1R receptor (Homo sapiens, UniProt P46663).
T2 construct: host or cells: CHO K1 cells (Chinese hamster ovary), stably transfected
T2 sequence (P46663 1-353): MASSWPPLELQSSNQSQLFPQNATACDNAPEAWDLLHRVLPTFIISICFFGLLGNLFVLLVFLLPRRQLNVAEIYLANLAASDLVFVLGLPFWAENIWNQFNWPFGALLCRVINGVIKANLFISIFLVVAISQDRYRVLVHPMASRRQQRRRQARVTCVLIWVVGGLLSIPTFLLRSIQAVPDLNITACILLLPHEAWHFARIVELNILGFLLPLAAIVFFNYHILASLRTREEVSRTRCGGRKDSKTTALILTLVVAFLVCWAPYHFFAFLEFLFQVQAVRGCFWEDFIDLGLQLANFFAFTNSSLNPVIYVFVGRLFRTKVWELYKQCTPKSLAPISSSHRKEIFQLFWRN
The experiment in a line: Functional study on the bradykinin receptor 1 (B1R), FLIPR Ca2+ assay, hB1R cells. In kind it is cell-based. To be noted: agonist Lys-Des-Arg9-bradykinin 0.5 nM, % inhibition compared with the maximum achievable inhibition; for inhibition at 10 µM: CHO-K1, test substance 10 μM, read-out: B1R Antagonism, human [10 μM] % Inhibition; for B1R Antagonism, human [10 μM] % Inhibition: test substance 10 μM, hB1R CHO K1 cells. In short, it runs like this:
as §1

As for `COc1cc(C)c(S(=O)(=O)N2CCCC2COCC(=O)Nc2ccc3cnn(C)c3c2)c(C)c1` (centres unmarked) [Example 501, 2-((1-(4-methoxy-2,6-dimethylphenylsulfonyl)pyrrolidin-2-yl)methoxy)-N-(1-methyl-1H-indazol-6-yl)acetamide], the inhibition (usually the drop in the measured response relative to a control, in per cent) at 10 µM in assay [1] was determined as 89.7%; in assay [2] it was 65.1%.
The corresponding values for `COCCN1CCN(C(=O)COCC2Cc3ccccc3CN2S(=O)(=O)c2c(C)cc(C)cc2C)CC1` (centres unmarked) [Example 246, 2-((2-(mesitylsulfonyl)-1,2,3,4-tetrahydroisoquinolin-3-yl)methoxy)-1-(4-(2-methoxyethyl)piperazin-1-yl)ethanone] are 72.1% and 56.4%.
The corresponding values for `Cc1cccc(Cl)c1S(=O)(=O)N1CCC[C@H]1COCC(=O)N1CCN(CC2CCN(C)CC2)CC1` [Example 163, (S)-2-((1-(2-chloro-6-methylphenylsulfonyl)pyrrolidin-2-yl)methoxy)-1-(4-((1-methylpiperidin-4-yl)methyl)piperazin-1-yl)ethanone dihydrochloride] are 101% and 95%.
For `COc1cc(C)c(S(=O)(=O)N2CCCCC2COCC(=O)N2CCN(c3nc(-c4ccccc4)cs3)CC2)c(C)c1` (centres unmarked) [Example 402, 2-((1-(4-methoxy-2,6-dimethylphenylsulfonyl)piperidin-2-yl)methoxy)-1-(4-(4-phenylthiazol-2-yl)piperazin-1-yl)ethanone], in that order: 101% and 47.1%.
With `O=C(COCC1CCCCN1S(=O)(=O)c1cccc(C(F)(F)F)c1)N1CCCCC1c1cncc(Br)c1` (centres unmarked) [Example 224, 1-(2-(5-bromopyridin-3-yl)piperidin-1-yl)-2-((1-(3-(trifluoromethyl)phenylsulfonyl)piperidin-2-yl)methoxy)ethanone], the inhibition at 10 µM in assay [1] was determined as 52.8%; in assay [2], 72.1%.
The corresponding values for `COc1cccc(N2CCN(C(=O)COCC3CCCCN3S(=O)(=O)c3c(Cl)cccc3Cl)CC2)c1` (centres unmarked) [Example 317, 2-((1-(2,6-dichlorophenylsulfonyl)piperidin-2-yl)methoxy)-1-(4-(3-methoxyphenyl)piperazin-1-yl)ethanone] are 100% and 92.2%.
For `COc1cc(C)c(S(=O)(=O)N2CCCCC2COCC(=O)N2CCN(Cc3cnn(C)c3C)CC2)c(C)c1` (centres unmarked) [Example 198, 1-(4-((1,5-dimethyl-1H-pyrazol-4-yl)methyl)piperazin-1-yl)-2-((1-(4-methoxy-2,6-dimethylphenylsulfonyl)piperidin-2-yl)methoxy)ethanone], in that order: 99.8% and 105%.
Regarding `O=C(COCC1CCCCN1S(=O)(=O)c1c(Cl)cc(Cl)cc1Cl)NCc1ccc(CN2CCCCC2)cc1` (centres unmarked) [Example 4, N-(4-piperidin-1-ylmethyl-benzyl)-2-[1-(2,4,6-trichloro-phenylsulfonyl)-piperidin-2-ylmethoxy]-acetamide], the inhibition at 10 µM was 106% in assay [1] and 104% in assay [2].
As for `CN1CCC(N2CCN(C(=O)COCC3CCCCN3S(=O)(=O)c3c(Cl)cccc3Cl)CC2)CC1` (centres unmarked) [Example 565, 2-((1-(2,6-dichlorophenylsulfonyl)piperidin-2-yl)methoxy)-1-(4-(1-methylpiperidin-4-yl)piperazin-1-yl)ethanone], in assay [1], the “B1R Antagonism, rat [10 μM] % Inhibition” value turned out to be 102.52%. Besides, in assay [2], the “B1R Antagonism, human [10 μM] % Inhibition” value is listed as 104.82%.
Take `Cc1cccc(Cl)c1S(=O)(=O)N1CCC[C@H]1COCC(=O)N1CCN(C2CCN(C)CC2)CC1` [Example 162, (S)-2-((1-(2-chloro-6-methylphenylsulfonyl)pyrrolidin-2-yl)methoxy)-1-(4-(1-methylpiperidin-4-yl)piperazin-1-yl)ethanone dihydrochloride]: the inhibition at 10 µM in assay [1] and in assay [2] was 99.5% each time.
In the case of `O=C(COCC1CCCCN1S(=O)(=O)c1c(Cl)cccc1Cl)N1CCN(Cc2ccccc2)CC1` (centres unmarked) [Example 480, 1-(4-benzylpiperazin-1-yl)-2-((1-(2,6-dichlorophenylsulfonyl)piperidin-2-yl)methoxy)ethanone], the inhibition at 10 µM in assay [1] amounted to 103%; in assay [2] it was 101%.
The corresponding values for `Cc1cccc(Cl)c1S(=O)(=O)N1CCC[C@H]1COCC(=O)N1CCC(CCN2CCCC2)CC1` [Example 161, (S)-2-((1-(2-chloro-6-methylphenylsulfonyl)pyrrolidin-2-yl)methoxy)-1-(4-(2-(pyrrolidin-1-yl)ethyl)piperidin-1-yl)ethanone hydrochloride] are 99.2% and 98.5%.
The corresponding values for `CN1CCC(N2CCN(C(=O)COCC3CCCCN3S(=O)(=O)c3c(Cl)cc(Br)cc3Cl)CC2)CC1` (centres unmarked) [Example 160, 2-((1-(4-bromo-2,6-dichlorophenylsulfonyl)piperidin-2-yl)methoxy)-1-(4-(1-methylpiperidin-4-yl)piperazin-1-yl)ethanone dihydrochloride] are 99% and 99%.
For `Cc1ccc(S(=O)(=O)N2CCCCC2COCC(=O)N2CCN(C3CCN(C)CC3)CC2)c2ccccc12` (centres unmarked) [Example 155, 2-((1-(4-methylnaphthalen-1-ylsulfonyl)piperidin-2-yl)methoxy)-1-(4-(1-methylpiperidin-4-yl)piperazin-1-yl)ethanone dihydrochloride], in that order: 89.6% and 107%.
As for `O=C(COCC1CCCCN1S(=O)(=O)c1ccc(Br)cc1)N1CCC(CCN2CCCC2)CC1` (centres unmarked) [Example 125, 2-((1-(4-bromophenylsulfonyl)piperidin-2-yl)methoxy)-1-(4-(2-(pyrrolidin-1-yl)ethyl)piperidin-1-yl)ethanone], the inhibition at 10 µM in assay [1] worked out at 95.4%; in assay [2] it was 50.6%.
The corresponding values for `CN(C)Cc1ccc(CNC(=O)COCC2CCCCN2S(=O)(=O)c2c(Cl)cc(Cl)cc2Cl)cc1` (centres unmarked) [Example 37, N-(4-dimethylaminomethyl-benzyl)-2-[1-(2,4,6-trichloro-phenylsulfonyl)-piperidin-2-ylmethoxy]-acetamide] are 103% and 78.2%.
The corresponding values for `COc1ccc(S(=O)(=O)N2CCCCC2COCC(=O)Nc2ccc(N3CCOCC3)c3nonc23)cc1` (centres unmarked) [Example 556, 2-((1-(4-methoxyphenylsulfonyl)piperidin-2-yl)methoxy)-N-(7-morpholinobenzo[c][1,2,5]oxadiazol-4-yl)acetamide] are 85.6% and 12.1%.
The corresponding values for `COc1cc(C)c(S(=O)(=O)N2CCCC2COCC(=O)NCC2CCCN(Cc3ccccc3)C2)c(C)c1` (centres unmarked) [Example 300, N-((1-benzylpiperidin-3-yl)methyl)-2-((1-(4-methoxy-2,6-dimethylphenylsulfonyl)pyrrolidin-2-yl)methoxy)acetamide] are 103% and 106%.
Regarding “2-((1-(2,6-dichlorophenylsulfonyl)piperidin-2-yl)methoxy)-N-(4-(dimethylamino)butyl)acetamide [Example 441]”, the “B1R Antagonism, rat [10 μM] % Inhibition” value in assay [1] stood at 98.36%. The “B1R Antagonism, human [10 μM] % Inhibition” value in assay [2] came to 103.96%.
